How the values were obtained:
[1] = system: estradiol metabolism; assay: Urinary 2-hydroxyestrone to 16-alpha-hydroxyestrone ratio by ELISA in trial patients; format: in vivo, human
Protocol: Clean catch urine specimens were obtained from each patient at the initial visit and again at their 4-week visit. 2-hydroxyestrone to 16-alpha-hydrosytestrone ratios were assessed in each urine sample. Ascorbic acid was added to the urine specimens to aid in preservation for accurate analysis. ELISA assays were performed to assess the quantity of 2-hydroxyestrone and 16-alpha-hydroxyestrone in each urine sample, and were reported in ng/ml.

[2] = system: HPV-induced benign tumors of laryngeal tissue; details: mouse model; cited from earlier work
[3] = system: cervical intraepithelial neoplasia (CIN); assay: Placebo-controlled trial of oral indole-3-carbinol in patients with histologically confirmed CIN, 12 weeks; format: in vivo, human; details: for patients with complete regression based on 12-week biopsy: placebo 0 of 10; for mean grade change of CIN: placebo 1.22
Protocol: Thirty subjects with histologically confirmed CIN were enrolled. Eligibility requirements were as follows: adequate colposcopy, negative ECC, no suspicion of invasion, non-pregnant, and […]. Evaluating colposcopists and patients were blinded to the treatment. All residents and staff involved in the study were instructed regarding the protocol. The patients were randomized to placebo, 200 mg/day, or 400-mg/day treatment of indole-3-carbinol administered orally for 12 weeks. Randomization was performed by successively assigning patients from a computer-generated randomization table. […] All patients underwent colposcopy at the initial visit as well as at their 4-week, 8-week, and 12-week visit. Photodocumentation of each colposcopic examination was obtained. At the end of the trial, each patient was reexamined, and if the patient had persistent CIN on 12-week biopsy, or if the colposcopic impression was persistent CIN, they underwent LEEP of the transformation zone. The dysplasia was classified by the pathologists in the usual manner and defined as follows: mild dysplasia meaning the presence of immature (dysplastic) cells present in the lower third of the squamous mucosa, moderate dysplasia in the lower two thirds, severe dysplasia the lower three fourths of the thickness of the mucosa and carcinoma in situ (“CIS”) full thickness immaturity. The cases were originally diagnosed by a sign out pathologist. The diagnosis of all cases was verified by the same pathologist for uniformity. In all cases, the pathologist was in agreement with the pathologist that had signed out the case. HPV status was assessed in all patients by Hybrid capture assay tests ([…] Diagnostics; Beltsville, MD) for low-risk (HPV types 6, 11, 42, 43, 44) and high-risk (HPV types 16, 18, 31, 33, 35, 45, 51, 52, 56). If the Hybrid capture assay was negative; a follow-up polymerase chain reaction (PCR) analysis was performed using consensus primers shown below for the L-1 region of HPV to confirm HPV positivity. The PCR amplification conditions were optimized using DNA isolated from paraffin embedded control HPV positive cervical cancer specimens prior to analysis of the study patient'samples.

[4] = system: mammary carcinogenesis; details: rat model; cited from earlier work

OCc1c[nH]c2ccccc12 [I3C, 1H-indole-3-methanol]
change of urinary 2-hydroxyestrone to 16-alpha-hydroxyestrone ratio before and after therapy ([1]; 200 mg/day and 400 mg/day groups, initiation vs 4 weeks, placebo showed a decrease): general trend in increase in the ratios
physiologic effect of the drug ([1]; conclusion of the placebo-controlled trial): seen in a dose-dependent fashion
growth of HPV-induced benign tumors of laryngeal tissue [2]: inhibits growth
relative risk (RR), protective effect ([3]; 200 mg/day group vs placebo, 95% CI 0.25 to 0.99, p=0.023): 0.50
patients with complete regression based on 12-week biopsy ([3]; 200 mg/day orally for 12 weeks, 4 of 8 patients): 50.0%
mean grade change of CIN ([3]; 200 mg/day orally for 12 weeks): 1.38
relative risk (RR), protective effect ([3]; 400 mg/day group vs placebo, 95% CI 0.31 to 0.99, p=0.032): 0.55
patients with complete regression based on 12-week biopsy ([3]; 400 mg/day orally for 12 weeks, 4 of 9 patients): 44.4%
mean grade change of CIN ([3]; 400 mg/day orally for 12 weeks): 1.78
patients with complete regression of CIN ([3]; 12 weeks of daily oral administration, summary statement): Roughly half
correlation of HPV presence with response ([3]; HPV status by Hybrid capture assay / PCR): presence of HPV does not correlate with response
dose response of mean grade of CIN regression ([3]; placebo, 200 mg/day and 400 mg/day groups): linear dose response relationship
inhibition of mammary carcinogenesis [4]: effective in inhibiting mammary carcinogenesis
